The source of these data is ChEMBL document CHEMBL1158374, “Exploring QSAR and QAAR for inhibitors of cytochrome P450 2A6 and 2A5 enzymes using GFA and G/PLS techniques” (Eur J Med Chem, 2009).

One may read the IC50 as the concentration at which inhibition is half-maximal.

The structures appear in SMILES notation.

Assay [1] deals with T1, Cytochrome P450 2A5 (Mus musculus, UniProt P20852).
T1 sequence (P20852 whole entry): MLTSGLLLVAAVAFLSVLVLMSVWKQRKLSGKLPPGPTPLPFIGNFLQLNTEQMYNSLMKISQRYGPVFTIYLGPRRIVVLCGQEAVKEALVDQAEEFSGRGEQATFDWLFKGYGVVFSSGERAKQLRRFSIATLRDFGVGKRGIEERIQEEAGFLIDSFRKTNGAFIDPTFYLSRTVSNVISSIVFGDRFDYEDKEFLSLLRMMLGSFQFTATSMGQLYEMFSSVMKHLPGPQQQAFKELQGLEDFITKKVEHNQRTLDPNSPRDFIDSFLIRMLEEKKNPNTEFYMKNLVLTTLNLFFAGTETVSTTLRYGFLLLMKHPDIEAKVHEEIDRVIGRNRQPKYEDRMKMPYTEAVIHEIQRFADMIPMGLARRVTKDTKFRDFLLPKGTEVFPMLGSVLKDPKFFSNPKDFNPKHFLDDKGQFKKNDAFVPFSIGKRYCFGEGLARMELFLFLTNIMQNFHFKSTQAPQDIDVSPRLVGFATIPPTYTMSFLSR
In words: Inhibition of mouse CYP2A5.

The target of assay [2] is T2, Cytochrome P450 2A6 (Homo sapiens, UniProt P11509).
T2 sequence (P11509 whole entry): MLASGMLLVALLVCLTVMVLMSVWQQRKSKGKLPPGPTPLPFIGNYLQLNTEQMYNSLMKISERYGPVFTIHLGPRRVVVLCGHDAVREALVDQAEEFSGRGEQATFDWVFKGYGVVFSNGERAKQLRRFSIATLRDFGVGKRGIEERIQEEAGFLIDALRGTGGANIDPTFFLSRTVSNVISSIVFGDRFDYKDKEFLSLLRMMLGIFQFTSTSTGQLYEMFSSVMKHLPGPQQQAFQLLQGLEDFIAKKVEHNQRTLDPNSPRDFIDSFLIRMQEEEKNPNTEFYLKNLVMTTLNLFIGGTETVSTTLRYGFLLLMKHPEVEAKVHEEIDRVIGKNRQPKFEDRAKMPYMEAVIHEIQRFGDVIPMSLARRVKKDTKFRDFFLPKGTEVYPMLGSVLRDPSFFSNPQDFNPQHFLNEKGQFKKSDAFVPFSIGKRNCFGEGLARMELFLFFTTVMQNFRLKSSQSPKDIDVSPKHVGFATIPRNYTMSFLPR
Description: Inhibition of human CYP2A6.

`CN1CCC[C@H]1c1cccnc1` [NICOTINE]: the IC50 in assay [1] is 160 µM; in assay [2], 579 µM.

As to `CN1C(=O)CCC1c1cccnc1` (centres undefined), the IC50 in assay [1] was 1500 µM. The same measure, in the same setting: the same measure for `Clc1ccc(-c2ccccc2)cc1`: 13 µM.
